Patent publication US5348946A, “Heteroanthracycline antitumor analogs” (Biochem Immunosystems, Inc., priority 1991, dated 1994)

Tests used:
Type in all cases: cell-based
CCRF-CEM = experiment: in vitro cytotoxicity evaluation, Leukemia; conditions: Homo sapiens, 48 h, two days, sulforhodamine B
Experimental: (§1) These assays were carried out at the Developmental Therapeutics Program, Division of Cancer Treatment, National Cancer Institute (Bethesda, Md., USA). The method consists of incubating varying concentrations of the drug with an inoculum of cells for two days.
(§2) It should be noted that the first two parameters (GI50 and TGI) relate to antiproliferation effects while the third one (LC50) indicates true cytotoxicity.

K-562 = experiment: in vitro cytotoxicity evaluation, Leukemia; conditions: Homo sapiens, K562, 48 h, K-562, two days, sulforhodamine B
Experimental: as §1, §2

MOLT-4 = experiment: in vitro cytotoxicity evaluation, Leukemia; conditions: Homo sapiens, 48 h, MOLT-4, two days, sulforhodamine B
Experimental: as §1, §2

RPMI-8226 = experiment: in vitro cytotoxicity evaluation, Leukemia; conditions: Homo sapiens, 48 h, RPMI-8226, two days, sulforhodamine B
Experimental: as §1, §2

A-549/ATCC = experiment: in vitro cytotoxicity evaluation, Non-Small Cell Lung Cancer; conditions: Homo sapiens, A549, 48 h, two days, sulforhodamine B
Experimental: as §1, §2

FKVX = experiment: as above; conditions: Homo sapiens, 48 h, two days, sulforhodamine B
Experimental: as §1, §2

HOP-18 = experiment: as above; conditions: Homo sapiens, 48 h, HOP-18, two days, sulforhodamine B
Experimental: as §1, §2

LXFL-529L = experiment: as above; conditions: Homo sapiens, 48 h, two days, sulforhodamine B
Experimental: as §1, §2

NCI-H226 = experiment: as above; conditions: Homo sapiens, 48 h, NCI-H226, two days, sulforhodamine B
Experimental: as §1, §2

NCI-H460 = experiment: as above; conditions: Homo sapiens, 48 h, NCI-H460, two days, sulforhodamine B
Experimental: as §1, §2

NCI-H522 = experiment: as above; conditions: Homo sapiens, 48 h, NCI-H522, two days, sulforhodamine B
Experimental: as §1, §2

DMS 273 = experiment: in vitro cytotoxicity evaluation, Small Cell Lung Cancer; conditions: Homo sapiens, 48 h, DMS 273, two days, sulforhodamine B
Experimental: as §1, §2

F498 = experiment: in vitro cytotoxicity evaluation, CNS Cancer; conditions: Homo sapiens, 48 h, F498, two days, sulforhodamine B
Experimental: as §1, §2

SF-539 = experiment: in vitro cytotoxicity evaluation, CNS Cancer; conditions: Homo sapiens, 48 h, SF-539, two days, sulforhodamine B
Experimental: as §1, §2

LOX IMVI = experiment: in vitro cytotoxicity evaluation, Melanoma; conditions: Homo sapiens, 48 h, two days, sulforhodamine B
Experimental: as §1, §2

M14 = experiment: in vitro cytotoxicity evaluation, Melanoma; conditions: Homo sapiens, 48 h, M14, two days, sulforhodamine B
Experimental: as §1, §2

M19-MEL = experiment: in vitro cytotoxicity evaluation, Melanoma; conditions: Homo sapiens, 48 h, two days, sulforhodamine B
Experimental: as §1, §2

MALME-3M = experiment: in vitro cytotoxicity evaluation, Melanoma; conditions: Homo sapiens, 48 h, two days, sulforhodamine B
Experimental: as §1, §2

SK-MEL-28 = experiment: in vitro cytotoxicity evaluation, Melanoma; conditions: Homo sapiens, 48 h, SK-MEL-28, two days, sulforhodamine B
Experimental: as §1, §2

SK-MEL-2 = experiment: in vitro cytotoxicity evaluation, Melanoma; conditions: Homo sapiens, 48 h, SK-MEL-2, two days, sulforhodamine B
Experimental: as §1, §2

SK-MEL-5 = experiment: in vitro cytotoxicity evaluation, Melanoma; conditions: Homo sapiens, 48 h, SK-MEL-5, two days, sulforhodamine B
Experimental: as §1, §2

UACC-257 = experiment: in vitro cytotoxicity evaluation, Melanoma; conditions: Homo sapiens, 48 h, UACC-257, two days, sulforhodamine B
Experimental: as §1, §2

UACC-62 = experiment: in vitro cytotoxicity evaluation, Melanoma; conditions: Homo sapiens, 48 h, UACC-62, two days, sulforhodamine B
Experimental: as §1, §2

[1] = read-out: LOG10 G150 (GI50) (converted)
[2] = read-out: Log10 LC50 (converted)
[3] = read-out: Log10 TGI (converted)

With `COc1c2c(c(OC)c3c(=O)c4ccccc4sc13)CS(=O)(=O)[C@@H]2O[C@H]1C[C@H](N)[C@H](O)[C@H](C)O1` [BCH-255, (1S ) 1-daunosamine-4-11-dimethoxy-5-oxo-5-H-1,3-dihydrothioxantheno [2,3-c] thiophene-2,2-dioxide] the GI50 (CCRF-CEM; [1]) was 17.8 µM, the CC50 (CCRF-CEM; [2]) was 97.7 µM and the IC (total growth inhibition (TGI)) (CCRF-CEM; [3]) was 41.7 µM. For the same molecule, the GI50 (K-562; [1]) was 16.2 µM, the CC50 (K-562; [2]) was 83.2 µM and the IC (total growth inhibition (TGI)) (K-562; [3]) was 36.3 µM. For the same molecule, the GI50 (MOLT-4; [1]) was 19.1 µM, the CC50 (MOLT-4; [2]) was 87.1 µM and the IC (total growth inhibition (TGI)) (MOLT-4; [3]) was 40.7 µM. The GI50 (RPMI-8226; [1]) was 16.2 µM, the CC50 (RPMI-8226; [2]) was greater than 100 µM and the IC (total growth inhibition (TGI)) (RPMI-8226; [3]) was 40.7 µM. It also gave a GI50 (A-549/ATCC; [1]) of 19.5 µM, a CC50 (A-549/ATCC; [2]) of 69.2 µM and an IC (total growth inhibition (TGI)) (A-549/ATCC; [3]) of 36.3 µM. It also gave a GI50 (FKVX; [1]) of 25.7 µM, a CC50 (FKVX; [2]) of 93.3 µM and an IC (total growth inhibition (TGI)) (FKVX; [3]) of 49 µM. The GI50 (HOP-18; read-out: LOG10 G150 (GI50)) was greater than 100 µM, the CC50 (HOP-18; [2]) was greater than 100 µM and the IC (total growth inhibition (TGI)) (HOP-18; read-out: Log10 TGI) was greater than 100 µM. The GI50 (LXFL-529L; [1]) was 17 µM, the CC50 (LXFL-529L; [2]) was 57.5 µM and the IC (total growth inhibition (TGI)) (LXFL-529L; [3]) was 31.6 µM. For the same molecule, the GI50 (NCI-H226; [1]) was 20 µM, the CC50 (NCI-H226; [2]) was 83.2 µM and the IC (total growth inhibition (TGI)) (NCI-H226; [3]) was 40.7 µM. The GI50 (NCI-H460; [1]) was 20.4 µM, the LC50 (concentration killing 50% of cells) (NCI-H460; [2]) was 79.4 µM and the IC (total growth inhibition (TGI)) (NCI-H460; [3]) was 39.8 µM. The GI50 (NCI-H522; [1]) was 18.6 µM, the CC50 (NCI-H522; [2]) was 77.6 µM and the IC (total growth inhibition (TGI)) (NCI-H522; [3]) was 38 µM. It also gave a GI50 (DMS 273; [1]) of 18.2 µM, a CC50 (DMS 273; [2]) of 70.8 µM and an IC (total growth inhibition (TGI)) (DMS 273; [3]) of 35.5 µM. It also gave a GI50 (F498; [1]) of 16.6 µM, a CC50 (F498; [2]) of 58.9 µM and an IC (total growth inhibition (TGI)) (F498; [3]) of 31.6 µM. It also gave a GI50 (SF-539; [1]) of 17.4 µM, a CC50 (SF-539; [2]) of 57.5 µM and an IC (total growth inhibition (TGI)) (SF-539; [3]) of 31.6 µM. It also gave a GI50 (LOX IMVI; [1]) of 17.8 µM, a CC50 (LOX IMVI; [2]) of 81.3 µM and an IC (total growth inhibition (TGI)) (LOX IMVI; [3]) of 38 µM. It also gave a GI50 (M14; [1]) of 18.2 µM, a CC50 (M14; [2]) of 60.3 µM and an IC (total growth inhibition (TGI)) (M14; [3]) of 33.1 µM. For the same molecule, the GI50 (M19-MEL; [1]) was 18.2 µM, the CC50 (M19-MEL; [2]) was 67.6 µM and the IC (total growth inhibition (TGI)) (M19-MEL; [3]) was 34.7 µM. The GI50 (MALME-3M; [1]) was 20 µM, the CC50 (MALME-3M; [2]) was 67.6 µM and the IC (total growth inhibition (TGI)) (MALME-3M; [3]) was 36.3 µM. For the same molecule, the GI50 (SK-MEL-28; [1]) was 18.2 µM, the CC50 (SK-MEL-28; [2]) was 67.6 µM and the IC (total growth inhibition (TGI)) (SK-MEL-28; [3]) was 34.7 µM. It also gave a GI50 (SK-MEL-2; [1]) of 19.1 µM, a CC50 (SK-MEL-2; [2]) of 70.8 µM and an IC (total growth inhibition (TGI)) (SK-MEL-2; [3]) of 36.3 µM. For the same molecule, the GI50 (SK-MEL-5; [1]) was 18.2 µM, the CC50 (SK-MEL-5; [2]) was 57.5 µM and the IC (total growth inhibition (TGI)) (SK-MEL-5; [3]) was 32.4 µM. It also gave a GI50 (UACC-257; [1]) of 22.4 µM, a CC50 (UACC-257; [2]) of 85.1 µM and an IC (total growth inhibition (TGI)) (UACC-257; read-out: Log10 TGI) of 43.7 µM. For the same molecule, the GI50 (UACC-62; [1]) was 19.1 µM, the CC50 (UACC-62; [2]) was 74.1 µM and the IC (total growth inhibition (TGI)) (UACC-62; [3]) was 37.2 µM.
